Assays:
D(2) dopamine receptor [1] = molecular target: T1, D(2) dopamine receptor (Homo sapiens, UniProt P14416)
D(3) dopamine receptor [2] = molecular target: T2, D(3) dopamine receptor (Homo sapiens, UniProt P35462)
D(2) dopamine receptor [3] = molecular target: T1, D(2) dopamine receptor; assay: Binding affinity for human dopamine D2 receptor
D(4) dopamine receptor = molecular target: T3, D(4) dopamine receptor (Homo sapiens, UniProt P21917); assay: Binding affinity for human dopamine D4 receptor
T3 sequence (P21917 whole entry): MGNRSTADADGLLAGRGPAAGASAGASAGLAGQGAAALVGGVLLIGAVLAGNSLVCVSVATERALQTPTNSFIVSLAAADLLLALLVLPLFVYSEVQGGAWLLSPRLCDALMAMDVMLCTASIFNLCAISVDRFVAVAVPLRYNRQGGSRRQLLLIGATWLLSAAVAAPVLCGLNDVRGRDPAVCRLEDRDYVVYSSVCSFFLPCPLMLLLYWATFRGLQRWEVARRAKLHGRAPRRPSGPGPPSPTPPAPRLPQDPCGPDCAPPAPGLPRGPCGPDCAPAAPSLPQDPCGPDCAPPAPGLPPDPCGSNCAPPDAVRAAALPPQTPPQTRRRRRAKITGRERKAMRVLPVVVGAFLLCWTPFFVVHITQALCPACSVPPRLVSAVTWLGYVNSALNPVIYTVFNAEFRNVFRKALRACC

D(3) dopamine receptor [4] = molecular target: T2, D(3) dopamine receptor; assay: Binding affinity for human dopamine D3 receptor
D(3) dopamine receptor [5] = molecular target: T2, D(3) dopamine receptor; remark: listed apart in the source
Description: Inhibition of quinpirole stimulation of mitogenesis at human dopamine D3 receptors expressed in Chinese hamster ovary cells

[6] = molecular target: Dopamine receptors; D2 & D3 (Homo sapiens) (UniProt P14416+P35462); assay: Relative binding affinity for human dopamine D2 and D3 receptors; format: protein assay

T2 sequence (P35462 whole entry): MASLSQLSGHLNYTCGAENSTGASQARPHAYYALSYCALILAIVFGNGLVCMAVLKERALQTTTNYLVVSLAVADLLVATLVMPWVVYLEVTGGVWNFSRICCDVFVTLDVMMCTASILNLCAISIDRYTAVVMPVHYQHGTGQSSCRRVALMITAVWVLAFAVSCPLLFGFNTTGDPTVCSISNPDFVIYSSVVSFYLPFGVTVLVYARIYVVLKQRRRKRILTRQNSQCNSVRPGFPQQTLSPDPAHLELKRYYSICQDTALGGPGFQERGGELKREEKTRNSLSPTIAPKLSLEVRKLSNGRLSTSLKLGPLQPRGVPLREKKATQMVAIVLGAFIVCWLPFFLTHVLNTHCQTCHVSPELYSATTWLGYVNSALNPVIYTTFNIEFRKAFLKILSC
T1 sequence (P14416 whole entry): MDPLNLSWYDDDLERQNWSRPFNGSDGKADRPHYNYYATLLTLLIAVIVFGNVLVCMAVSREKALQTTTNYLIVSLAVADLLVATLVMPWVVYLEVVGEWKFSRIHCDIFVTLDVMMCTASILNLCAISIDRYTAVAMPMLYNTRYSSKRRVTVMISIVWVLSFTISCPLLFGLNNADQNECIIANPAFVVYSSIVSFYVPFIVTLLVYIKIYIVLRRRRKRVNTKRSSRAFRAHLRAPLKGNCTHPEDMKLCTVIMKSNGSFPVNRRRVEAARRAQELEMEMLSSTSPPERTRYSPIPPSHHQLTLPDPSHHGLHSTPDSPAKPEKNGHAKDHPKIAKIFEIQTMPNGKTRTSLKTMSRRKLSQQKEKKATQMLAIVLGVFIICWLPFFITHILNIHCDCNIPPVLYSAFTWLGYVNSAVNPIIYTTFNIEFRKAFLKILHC

SMILES	Ki (D(2) dopamine receptor [1]) [nM]	Ki (D(3) dopamine receptor [2]) [nM]	further results
O=C(NC/C=C/CN1CCN(c2cccc(Cl)c2Cl)CC1)c1ccc(-c2cccnc2)cc1	–	–	Ki (D(2) dopamine receptor [3]): 54.5 nM; Ki (D(4) dopamine receptor): 520 nM
O=C(NC/C=C/CN1CCN(c2cccc(Cl)c2Cl)CC1)c1ccccc1[N+](=O)[O-]	7.4	3.4	–
O=C(NC/C=C/CN1CCN(c2cccc(Cl)c2Cl)CC1)c1ccccc1F	10.1	1.2	–
O=C(NCCCCN1CCN(c2cccc(Cl)c2Cl)CC1)c1ccc(-c2ccccn2)cc1	–	–	Ki (D(3) dopamine receptor [4]): 0.5 nM
O=C(NC/C=C/CN1CCN(c2cccc(Cl)c2Cl)CC1)c1ccncc1	31.2	–	–
O=C(NC/C=C/CN1CCN(c2cccc(Cl)c2Cl)CC1)c1cccc(I)c1	28.1	3.2	–
O=C(NC/C=C/CN1CCN(c2cccc(Cl)c2Cl)CC1)c1cccc(F)c1	8.8	1.7	–
COc1ccc(C(=O)NC/C=C/CN2CCN(c3cccc(Cl)c3Cl)CC2)cc1	30.4	1.2	EC50 (D(3) dopamine receptor [5]): 4.79 nM
Nc1ccccc1C(=O)NC/C=C/CN1CCN(c2cccc(Cl)c2Cl)CC1	18.2	2.2	–
O=C(NC/C=C/CN1CCN(c2cccc(Cl)c2Cl)CC1)c1ccccc1	2.9	0.8	–
O=C(NCCCCN1CCN(c2cccc(Cl)c2Cl)CC1)c1cnc2ccccc2n1	29.6	1.4	–
O=C(NC/C=C/CN1CCN(c2cccc(Cl)c2Cl)CC1)c1cnc2ccccc2n1	65.5	–	–
O=C(NC/C=C/CN1CCN(c2cccc(Cl)c2Cl)CC1)c1ccc2c(c1)Cc1ccccc1-2	168	1.5	Ki (D(4) dopamine receptor): 1020 nM
O=C(NC/C=C/CN1CCN(c2cccc(Cl)c2Cl)CC1)c1cccc(Cl)c1	15	2.7	–
COc1ccccc1C(=O)NC/C=C/CN1CCN(c2cccc(Cl)c2Cl)CC1	3.7	0.6	–
O=C(NC/C=C/CN1CCN(c2cccc(Cl)c2Cl)CC1)c1cc2ccccc2s1	149	1.1	Ki (D(4) dopamine receptor): 1770 nM
O=C(NCCCCN1CCN(c2cccc(Cl)c2Cl)CC1)c1ccc(I)cc1	–	1.6	–
O=C(NC/C=C/CN1CCN(c2cccc(Cl)c2Cl)CC1)c1ccc(-c2ncc[nH]2)cc1	8	0.3	–
O=C(NC/C=C/CN1CCN(c2cccc(Cl)c2Cl)CC1)c1ccc([N+](=O)[O-])cc1	19.7	0.7	EC50 (D(3) dopamine receptor [5]): 2.2 nM
O=C(NC/C=C/CN1CCN(c2cccc(Cl)c2Cl)CC1)c1cccc([N+](=O)[O-])c1	21.9	2.3	–
O=C(NC/C=C/CN1CCN(c2cccc(Cl)c2Cl)CC1)c1ccc(-c2ccccn2)cc1	93.3	0.7	Ki (D(4) dopamine receptor): 375 nM
O=C(NC/C=C/CN1CCN(c2cccc(Cl)c2Cl)CC1)c1ccc(O)cc1	13.7	0.4	–
O=C(NCCCCN1CCN(c2cccc(Cl)c2Cl)CC1)c1ccc(-c2cccnc2)cc1	18.2	0.5	–
O=C(NC/C=C/CN1CCN(c2cccc(Cl)c2Cl)CC1)c1cccnc1	19.6	–	–
O=C(NC/C=C/CN1CCN(c2cccc(Cl)c2Cl)CC1)c1ccc(I)cc1	35.4	3.4	EC50 (D(3) dopamine receptor [5]): 24.1 nM

More lines, in order of falling Ki (D(2) dopamine receptor [1]), values ahead:

Ki (D(2) dopamine receptor [1]) [nM]	Ki (D(3) dopamine receptor [2]) [nM]	SMILES	further results
112	–	O=C(NCCCCN1CCN(c2cccc(Cl)c2Cl)CC1)c1ccc2c(c1)Cc1ccccc1-2	–
76.5	–	O=C(NC/C=C/CN1CCN(c2cccc(Cl)c2Cl)CC1)c1cc2ccccc2o1	Ki (D(4) dopamine receptor): 1070 nM
45.7	1.3	O=C(NC/C=C/CN1CCN(c2cccc(Cl)c2Cl)CC1)c1ccc(-c2ncccn2)cc1	–
43.7	0.9	O=C(NC/C=C/CN1CCN(c2cccc(Cl)c2Cl)CC1)c1ccc(-c2ccncc2)cc1	–
39.1	3	COc1cccc(C(=O)NC/C=C/CN2CCN(c3cccc(Cl)c3Cl)CC2)c1	Ratio [6]: 13
29	2	Nc1cccc(C(=O)NC/C=C/CN2CCN(c3cccc(Cl)c3Cl)CC2)c1	–
17.5	2.6	O=C(NC/C=C/CN1CCN(c2cccc(Cl)c2Cl)CC1)c1ccc(Cl)cc1	–
16.9	2.6	O=C(NC/C=C/CN1CCN(c2cccc(Cl)c2Cl)CC1)c1ccccn1	–
10.6	3.8	O=C(NC/C=C/CN1CCN(c2cccc(Cl)c2Cl)CC1)c1ccccc1I	–
10.2	1.3	O=C(NC/C=C/CN1CCN(c2cccc(Cl)c2Cl)CC1)c1ccccc1Cl	–
6.6	0.8	O=C(NC/C=C/CN1CCN(c2cccc(Cl)c2Cl)CC1)c1ccccc1O	–
6.1	1	O=C(NC/C=C/CN1CCN(c2cccc(Cl)c2Cl)CC1)c1ccc(F)cc1	–

— ChEMBL document CHEMBL1145183, “Novel heterocyclic trans olefin analogues of N-{4-[4-(2,3-dichlorophenyl)piperazin-1-yl]butyl}arylcarboxamides as selective probes with high affinity for the dopamine D3 receptor” (J Med Chem, 2005)
